# Assay results from PMC10107299, “Neutralizing the Impact of the Virulence Factor LecA from Pseudomonas aeruginosa on Human Cells with New Glycomimetic Inhibitors” (Angewandte Chemie (International Ed. in English), 2023).
# “And” between values parts separate entries of the source, which are not always exact repeats. Equal entries are not always repeated.
# Experiments:
# [1] = Kinetic solubility in TBS/Ca2+ buffer (HPLC-MS); assay type: physicochemical; details: aqueous buffer, kinetic from dmso stock; TBS/Ca2+ buffer pH 7.4, 1 % DMSO, N≥3; read-out: Solubility S (kinetic)
# Experimental: Next, we quantified the solubility of at least one representative of each new class and of one parent bisacylhydrazone in aqueous media (Table 1). […]
# TBS/Ca2+ buffer (20 mM Tris, 137 mM NaCl, 2.6 mM KCl at pH 7.4 supplemented with 1 mM […]
# (§1) CaCl2) in presence of 25% DMSO. […]
# Kinetic solubility was determined on the analytical HPLC-MS using Compass QuantAnalysis quantification software (Bruker). Samples were prepared from DMSO stock solutions by dilution with TBS/Ca2+ buffer to 100 µM with 1% DMSO present. Samples were incubated on a shaker for 1 h at r.t., centrifuged (21380 g, 20 min), supernatants were diluted with DMSO (1:3), analyzed by HPLC-MS and fitted to the individual calibration curves.
# Every experiment was repeated independently at least three times. […]
# LecA [2] = target: T1, LecA (Pseudomonas aeruginosa, UniProt Q05097); assay: Competitive binding assay based on fluorescence polarization
# T1 construct: made in house
# Experimental: All synthesized galactosides were then evaluated for LecA inhibition using a competitive binding assay based on fluorescence polarization (Figure S1).[24]
# Expression and purification of LecA as well as competitive binding by fluorescence polarization was performed as described by Joachim et al..[9] The assay was performed in TBS/Ca2+ buffer (20 mM Tris, 137 mM NaCl, 2.6 mM KCl at pH 7.4 supplemented with 1 mM CaCl2) in presence of 25% DMSO. Averages and standard deviations were calculated from at least three independent experiments. […]
# RR OR In h i b i to r [µ M ]
# R R In h i b i to r [µ M ] […]
# R In h i b i to r [µ M ] 30 L2
# 30 F2 40 K2 In h i b i to r [µ M ] […]
# In h i b i to r [µ M ] In h i b i to r [µ M ]
# Figure S1: Evaluation of amide divalent LecA ligands in a competitive binding assay based on fluorescence […]
# representative experiment is shown or each series. Averages and standard deviations from at least three independent titrations of triplicates each.
# […] Fluorescence polarization [mP] -1 0 1 2 3 0 1001010 Me-α-Gal pNO2-Ph-β-Gal 1000 Inhibitor [µM] Fluorescence polarization [mP])
# LecA [3] = target: T1, LecA; assay: Direct binding to immobilized LecA by surface plasmon resonance (SPR); details: for kon: SPR single-cycle kinetics, 25 °C, N=3 (I1 N=1); for Relative potency r.p. (SPR): compared to respective monovalent compound in each series
# Experimental: K d values were oscillating with the number of methylene units present in the linker, presumably linked to the zig‐zag geometry of the hydrocarbon chain.
# Expression and purification of LecA as well as competitive binding by fluorescence polarization was performed as described by Joachim et al..[9] […]
# Surface plasmon resonance experiments were performed on a BIACORE X100 instrument (GE Healthcare) at 25 °C as described by Zahorska et. al..[8] Averages and standard deviations were calculated from three independent experiments. […]
# Figure S3: SPR of divalent LecA ligands from benzene series. Sensorgrams obtained from SPR single-cycle kinetics experiments. Five different concentrations of each compound (0, 10, 50, 100, 200 nM) were sequentially injected to obtain the experimental sensorgrams (blue lines), which were then fitted by a 1:1 model (orange) on BIACORE evaluation software. […]
# Figure S4: SPR of divalent LecA ligands from pyridine and sulfonated series. Sensorgrams obtained from SPR single-cycle kinetics experiments. Five different concentrations of each compound (0, 10, 50, 100, 200 nM) were sequentially injected to obtain the experimental sensorgrams (blue lines), which were then fitted by a 1:1 model (orange) on BIACORE evaluation software.
# (also on this page, place not known: Response (RU)0 Response (RU)0 Response (RU) Response (RU) Response (RU) Response (RU) 030060090012001500) […]
# LecA [4] = target: T1, LecA; assay: Isothermal titration microcalorimetry (ITC) with LecA; assay type: binding; details: for -TΔS (supplement) / ΔS: ITC average ± s.d.; for Relative potency r.p. (ITC): compared to respective monovalent compound in each series; for ΔG, individual titration / ΔH, individual titration: LecA 35-182 µM, ligand 100 µM-1.5 mM as headed
# Excerpt: Due to the high solubility of the propanamides in the pyridine series and the sulfonated ligand L2, we determined binding thermodynamics with LecA using isothermal titration microcalorimetry (ITC, Figure 3, Figures S5–S9). […] In both cases, the enthalpy of binding increased approximately twofold (I2: ΔH=−23.9±1.2 kcal mol^−1, L2: ΔH=−19.5±1.3 kcal mol^−1) compared to their monovalent analogues (G2: ΔH=−11.0±0.2 kcal mol^−1, K2: ΔH=−10.3±0.1 kcal mol^−1), while the binding entropy was increased approximately threefold (G2: −TΔS=3.8±0.2 kcal mol^−1 vs. I2: −TΔS=13.7±1.3 kcal mol^−1, K2: −TΔS=3.2±0.2 kcal mol^−1 vs. L2: −TΔS=9.4±1.3 kcal mol^−1).
# Figure 3 Direct binding of selected ligands to LecA by ITC (N=3). Titration of LecA (50 μM) with divalent sulfonated ligand L2 (250 μM) is depicted. Relative potencies (r.p.) were calculated compared to respective monovalent compound in each series and […]. TEXT PRINTED IN THE PICTURE: G2: ΔG [kcal/mol]: -7.2 ± 0.1; ΔH [kcal/mol]: -11.0 ± 0.2; -TΔS [kcal/mol]: 3.8 ± 0.2; N: 1.07 ± 0.06; Kd [nM]: 5 270 ± 30; r.p.: 1 | I2: ΔG [kcal/mol]: -10.2 ± 0.2; ΔH [kcal/mol]: -23.9 ± 1.2; -TΔS [kcal/mol]: 13.7 ± 1.3; N: 0.43 ± 0.01; Kd [nM]: 35.1 ± 12.5; r.p.: 150 | J2: ΔG [kcal/mol]: -9.7 ± 0.2; ΔH [kcal/mol]: -13.5 ± 0.4; -TΔS [kcal/mol]: 3.8 ± 0.5; N: 0.61 ± 0.06; Kd [nM]: 79.5 ± 32.8; r.p.: 66 | K2: ΔG [kcal/mol]: -7.1 ± 0.1; ΔH [kcal/mol]: -10.3 ± 0.1; -TΔS [kcal/mol]: 3.2 ± 0.2; N: 1.08 ± 0.13; Kd [nM]: 6 230 ± 440; r.p.: 1 | L2: ΔG [kcal/mol]: -10.1 ± 0.1; ΔH [kcal/mol]: -19.5 ± 1.3; -TΔS [kcal/mol]: 9.4 ± 1.3; N: 0.52 ± 0.06; Kd [nM]: 39.9 ± 3.6; r.p.: 156 […]
# Expression and purification of LecA as well as competitive binding by fluorescence polarization was performed as described by Joachim et al..[9] The assay was performed in TBS/Ca2+ buffer (20 mM Tris, 137 mM NaCl, 2.6 mM KCl at pH 7.4 supplemented with 1 mM […]
# as §1
# Isothermal titration calorimetry was performed on an iTC200 (Malvern Panalytical) and the data were analyzed using Microcal Origin software (Malvern Panalytical). LecA (50 - 180 […]
# K2 and L2 and TBS/Ca2+ buffer supplemented with 5% DMSO for I2 and J2. Steep titration slopes achieved with the divalent ligands were the result of high amount of protein present and the high binding affinity of the ligand (high ‘value of c’).[10] However, LecA protein […]
# low heat released upon binding. […]
# [5] = ITC average, 25 °C, TBS/Ca2+ buffer (5% DMSO for I2 and J2), N=3
# [6] = Kd (ITC), ITC average, 25 °C, TBS/Ca2+ buffer (5% DMSO for I2 and J2), N=3
# [7] = Kd, individual titration, single ITC titrations, three per ligand
# [8] = single ITC titrations, three per ligand
# T1 sequence (Q05097 whole entry): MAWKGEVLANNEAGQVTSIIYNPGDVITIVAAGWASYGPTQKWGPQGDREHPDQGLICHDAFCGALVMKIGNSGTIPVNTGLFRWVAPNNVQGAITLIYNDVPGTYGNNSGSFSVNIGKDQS
SMILES,solubility kinetic at 1 h [1],IC50 (LecA [2]),Kd (LecA [3]),koff (LecA [3]),kon (LecA [3]),Relative potency r.p. (SPR) (LecA [3]),-TΔS (supplement) (LecA [4]; 25 °C),ΔS (LecA [4]; 25 °C),"N (stoichiometry) (LecA [4]; ITC average, 25 °C, N=3)",-TΔS (LecA [4]; [5]),ΔG (LecA [4]; [5]),ΔH (LecA [4]; [5]),Kd (LecA [4]; [6]),Kd (LecA [4]; [7]),Relative potency r.p. (ITC) (LecA [4]),"N, individual titration (LecA [4]; [8])","ΔS, individual titration (LecA [4]; [8])","ΔG, individual titration (LecA [4]; [8])","ΔH, individual titration (LecA [4]; [8])"
O=C(CCc1ccc(O[C@@H]2O[C@H](CO)[C@H](O)[C@H](O)[C@H]2O)cc1)Nc1ccc(OCCCOc2ccc(NC(=O)CCc3ccc(O[C@@H]4O[C@H](CO)[C@H](O)[C@H](O)[C@H]4O)cc3)cn2)nc1 [Compound I2],63.3 ± 4.2 µM,3200 ± 1300 nM,30.8 ± 1.5 nM,0.00809 ± 0.00124 s⁻¹,262 ± 28 x10^3/Ms,97,13.7 ± 1.3 kcal/mol,-45.9 ± 4.5 cal/mol/K,0.43 ± 0.01,13.7 ± 1.3 kcal/mol,-10.2 ± 0.2 kcal/mol,-23.9 ± 1.2 kcal/mol,35.1 ± 12.5 nM,48.3 nM and 38.8 nM and 18.3 nM,150,0.44 (2×) and 0.43,-51.6 cal/mol/K and -40.6 cal/mol/K and -45.6 cal/mol/K,-10.0 kcal/mol and -10.1 kcal/mol and -10.6 kcal/mol,-23.6 kcal/mol and -25.5 kcal/mol and -22.7 kcal/mol
O=C(CCc1ccc(O[C@@H]2O[C@H](CO)[C@H](O)[C@H](O)[C@H]2O)cc1)Nc1ccc(OCCCCOc2ccc(NC(=O)CCc3ccc(O[C@@H]4O[C@H](CO)[C@H](O)[C@H](O)[C@H]4O)cc3)cn2)nc1 [Compound J2],13.7 ± 1.7 µM,3400 ± 1300 nM,25.1 ± 1.9 nM,0.0068 ± 0.00265 s⁻¹,267 ± 84 x10^3/Ms,118,3.8 ± 0.5 kcal/mol,-12.6 ± 1.8 cal/mol/K,0.61 ± 0.06,3.8 ± 0.5 kcal/mol,-9.7 ± 0.2 kcal/mol,-13.5 ± 0.4 kcal/mol,79.5 ± 32.8 nM,59.9 nM and 52.9 nM and 126 nM,66,0.53 and 0.62 and 0.69,-10.1 cal/mol/K and -13.8 cal/mol/K and -14.0 cal/mol/K,-9.9 kcal/mol (2×) and -9.4 kcal/mol,-14.0 kcal/mol and -12.9 kcal/mol and -13.5 kcal/mol
